{"source": "patent US20090170900A1", "about": "“DOSING REGIMEN FOR WEIGHT LOSS” (UTI LIMITED PARTNERSHIP, priority 2005, published 2009)", "key": {"CB1": {"target": "CB1 (Homo sapiens, UniProt P21554)", "sequence (P21554 whole entry, species assumed)": "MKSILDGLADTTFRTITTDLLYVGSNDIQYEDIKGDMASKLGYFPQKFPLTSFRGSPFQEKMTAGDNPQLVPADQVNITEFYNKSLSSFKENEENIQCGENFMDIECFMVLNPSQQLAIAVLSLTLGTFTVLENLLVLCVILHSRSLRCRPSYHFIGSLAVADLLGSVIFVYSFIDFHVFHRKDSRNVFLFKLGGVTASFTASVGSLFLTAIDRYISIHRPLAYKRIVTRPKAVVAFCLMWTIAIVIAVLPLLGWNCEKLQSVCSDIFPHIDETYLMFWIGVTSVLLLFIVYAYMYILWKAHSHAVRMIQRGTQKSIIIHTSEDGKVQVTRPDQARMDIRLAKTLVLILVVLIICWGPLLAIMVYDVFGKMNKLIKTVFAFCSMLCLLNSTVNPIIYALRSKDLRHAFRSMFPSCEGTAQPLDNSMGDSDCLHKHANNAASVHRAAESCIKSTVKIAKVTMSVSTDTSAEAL", "conditions": "cited from earlier work"}, "[1]": {"assay": "Daily food intake after a single dose of 1.25 or 2.5 mg/kg (Example 2)", "type": "in vivo, rat", "protocol": "(§1) Food intake and weight measurements were taken daily. […] Animals were assigned into vehicle, 1.25 or 2.5 mg/kg conditions via a counterbalance design."}, "[2]": {"assay": "Weight gain or loss after a single dose of 1.25 or 2.5 mg/kg (Example 2)", "type": "in vivo, rat", "conditions": "for weight gain or loss: over 10 days", "protocol": "as §1"}, "[3]": {"assay": "Body weight gain with daily or twice-weekly intragastric injection (Example 4)", "type": "in vivo, rat", "conditions": "low doses by the intragastric route, 28 days", "source_text": "(§2) Each of the rats was assigned to one of five groups. […] These groups were compared to the group with daily injection of vehicle (n=8)."}, "[4]": {"conditions": "cited from earlier work"}, "[5]": {"assay": "Daily food intake with administration every 5 days (Example 3)", "conditions": "5 mg/kg every 5 days"}, "[6]": {"assay": "Body weight change with administration every 5 days (Example 3)", "conditions": "5 mg/kg every 5 days, p<0.05"}, "[7]": {"assay": "Food intake after a single intraperitoneal injection in prefed, moderately obese male Lewis rats (Example 1)", "conditions": "for cumulative food intake: AM-251 5 mg/kg i.p., Ensure Plus"}, "[8]": {"assay": "Two-flavored conditioned aversion test (Example 4)", "type": "in vivo, rat", "conditions": "for short-term percentage preference for the primary flavor associated with drug delivery: 15 min; for percentage daily preference for the flavor associated with drug delivery: 17 hr", "source_text": "Another objective was to determine whether the animals were responding negatively to the drug as determined by the use of a two-flavored conditioned aversion test in which the drug was repeatedly paired with one flavor of liquid diet while the vehicle injection was paired with the other flavor. There were ten training trials before the test procedure was done so the rats had sufficient time to make associations between flavors and internal consequences. This test procedure involved giving the rats two bottles, containing the liquid diets flavored with chocolate and strawberry, and determining the individual rat's preference for one or the other of the flavors. A conditioned aversion was established if the rat chose against the flavor associated with the drug injections.\nas §2\nThis conditioning procedure was done for 10 exposures before the actual conditioned aversion test was done on day 33. This aversion test was done by allowing each rat exposure for 17 hrs to two bottles, one containing chocolate-flavored and the other containing strawberry-flavored liquid diet. No drugs or vehicles were injected on this day. […] Moreover, the rats were forced to taste both flavors for three or four licks before the diets were made freely available to them so the rats were fully aware that two flavors were present. […] The 17-hour tests allowed repeated association between the internal consequences of the drug and the taste of the drug associated primary flavor."}, "[9]": {"conditions": "determined from behavioral tests; cited from earlier work"}, "[10]": {"conditions": "cited from earlier work", "remark": "listed apart in the source"}, "[11]": {"conditions": "5 and 20 mg doses; human trials; cited from earlier work"}, "[12]": {"conditions": "mice; cited from earlier work"}, "[13]": {"conditions": "animal model of temporal lobe epilepsy; cited from earlier work"}, "[14]": {"conditions": "rats injected daily (intragastric)"}}, "note": "Read-outs that look alike come from different tables or passages of the source."}
{"compound": "Cc1c(C(=O)NN2CCOCC2)nn(-c2ccc(Cl)cc2Cl)c1-c1ccc(I)cc1", "note": "[AM 281, N-(Morpholin-1-yl)-1-(2,4-dichlorophenyl)-5-(4-iodophenyl)-4-methyl-1H-pyrazole-3-carboxamide]", "values": [{"measurement": "CB1 antagonist activity and selectivity", "setting": "CB1", "value": "potent, CB1 selective antagonists"}]}
{"compound": "Cc1c(C(=O)NN2CCCCC2)nn(-c2ccc(Cl)cc2Cl)c1-c1ccc(I)cc1", "note": "[AM-251, N-(piperidin-1-yl)-5-(4-iodophenyl)-1-(2,4-dichlorophenyl)-4-methyl-1H-pyrazole-3-carboxamide]", "values": [{"measurement": "reductions in food intake, dose relation", "setting": "[1]; 1.25 mg/kg or 2.5 mg/kg single dose", "value": "dose dependent"}, {"measurement": "duration of significant reductions in food intake after the day of administration", "setting": "[1]; 2.5 mg/kg single dose, significant starting the day of administration, p<0.001", "value": 4, "unit": "days"}, {"measurement": "weight gain or loss", "setting": "[2]; 1.25 mg/kg single dose", "value": "2.5 ± 2.0", "unit": "g"}, {"measurement": "weight gain or loss", "setting": "[2]; 2.5 mg/kg single dose", "value": "-5.1 ± 2.1", "unit": "g"}, {"measurement": "duration of weight loss compared with duration of reduced food intake", "setting": "[2]; lowest dose, 1.25 mg/kg", "value": "the duration of weight loss exceeded the duration of reduced food intake"}, {"measurement": "effect on body weight gain", "setting": "[3]", "value": "significant slowing in weight gain"}, {"measurement": "time of repeated daily administration after which changes in food intake were non-significant", "setting": "[4]; 3 mg/kg daily, mouse", "value": 8, "unit": "days"}, {"measurement": "effect of stopping daily doses", "setting": "[4]; approximately 10 mg/kg daily", "value": "significant rebound hyperphagia and a rapid return in body weight"}, {"measurement": "days on which food intake was significantly reduced", "setting": "[5]", "value": "days 1-4, and days 6-15"}, {"measurement": "time that reductions in food intake continued after the last treatment", "setting": "[5]", "value": "five"}, {"measurement": "duration of significant reductions in food intake after the first dose", "setting": "[5]; vs vehicle, p<0.05", "value": 4, "unit": "days"}, {"measurement": "period of significant differences in weight change vs vehicle", "setting": "[6]; Newman-Keuls multiple comparison test", "value": "day 1 to day 24"}, {"measurement": "period of significant reductions in weight gain", "setting": "[6]; unpaired t-test, last administration on day 11", "value": "day 1 until day 27"}, {"measurement": "daily food intake", "setting": "[7]; 5 mg/kg i.p., day of injection", "value": "36.7 ± 3.3", "unit": "g"}, {"measurement": "daily food intake", "setting": "[7]; 5 mg/kg i.p., last day of significant reduction (day before the next drugs were given)", "value": "47.0 ± 2.5", "unit": "g"}, {"measurement": "duration of significant reduction in daily food intake", "setting": "[7]; 5 mg/kg i.p., starting on the day of injection", "value": 6, "unit": "days"}, {"measurement": "cumulative food intake", "setting": "[7]; 1 h of testing", "value": "no intake"}, {"measurement": "cumulative food intake", "setting": "[7]; 2 h of testing", "value": "1.3 ± 0.8", "unit": "g"}, {"measurement": "cumulative food intake", "setting": "[7]; 3 h of testing", "value": "3.3 ± 1.4", "unit": "g"}]}
{"compound": "CN=C(NS(=O)(=O)c1ccc(Cl)cc1)N1C[C@H](c2ccccc2)C(c2ccc(Cl)cc2)=N1", "note": "[SLV-319]", "values": [{"measurement": "CB1 antagonist activity and selectivity", "setting": "CB1", "value": "potent, CB1 selective antagonists"}]}
{"compound": "Cc1c(C(=O)NN2CCCCC2)nn(-c2ccc(Cl)cc2Cl)c1-c1ccc(Cl)cc1", "note": "[rimonabant, N-(piperidin-1-yl)-5-(4-chlorophenyl)-1-(2,4-dichlorophenyl)-4-methyl-1H-pyrazole-3-carboxamide]", "values": [{"measurement": "effect on body weight gain", "setting": "[3]", "value": "significant slowing in weight gain"}, {"measurement": "short-term percentage preference for the primary flavor associated with drug delivery", "setting": "[8]; [14]", "value": 48, "unit": "%"}, {"measurement": "short-term percentage preference for the primary flavor associated with drug delivery", "setting": "[8]; rats injected twice-weekly (intragastric)", "value": 44, "unit": "%"}, {"measurement": "percentage daily preference for the flavor associated with drug delivery", "setting": "[8]; rats injected biweekly (intragastric)", "value": 50, "unit": "%"}, {"measurement": "percentage daily preference for the flavor associated with drug delivery", "setting": "[8]; [14]", "value": 67, "unit": "%"}, {"measurement": "predicted half-life", "setting": "[9]", "value": 22, "unit": "h"}, {"measurement": "effect of stopping daily doses", "setting": "[10]; approximately 10 mg/kg daily", "value": "significant rebound hyperphagia and a rapid return in body weight"}, {"measurement": "time of treatment after which the anorectic effect waned", "setting": "[10]; continued treatment, rats", "value": 5, "unit": "days"}, {"measurement": "most common side effects", "setting": "[11]", "value": "nausea, dizziness, arthralgia and diarrhea"}, {"measurement": "damage in response to an inflammatory stimulus vs vehicle-treated controls", "setting": "[12]", "value": "significantly more damage"}, {"measurement": "frequency of protracted seizures", "setting": "[13]", "value": "significantly higher frequency of protracted seizures"}]}
